Columns and labels:
[1] = system: unc-25 and unc-49 loss of function mutant C. elegans; settings: unc-25 and unc-49 mutants; concentration not given; cited from earlier work
[2] = system: C. elegans (N2 worms); settings: effect of PTZ application; concentration not given; cited from earlier work
[3] = system: C. elegans (N2 worms); assay: C. elegans electroshock seizure assay (recovery time; with or without PTZ); type: in vivo; settings: 3 mM (3000 μM); with PTZ; control AED
Source text: FIG. 2 is a graph showing recovery time (seconds) for N2 worms (vertical axis) in the presence of M9 or pentylenetetrazol (PTZ) (first two bars). In other experiments, PTZ is combined with either an RVM or sodium valproate.
FIG. 3 left is the structure of RVM-3, and FIG. 3 right is a graph showing recovery time (seconds) for N2 worms (vertical axis) in the presence of M9 or PTZ (first two bars). In other experiments, PTZ is combined with RVM-3 at varying concentrations or sodium valproate.
The structures of these RVMs are comprised of an all-carbon bridged bicyclic scaffold that is fully saturated, a motif that is without precedent in the AED literature. […] It is expected that a pharmacological intervention based on RVMs will provide relief from epileptic events at low dosages.
The C. elegans seizure assay includes placing L4 C. elegans into a small tube that is capped on both sides by copper wires. A shock of 47 V for three seconds is then administered. […] Recovery is recorded when the animals present with coordinated three sinusoidal movements, which is then characterized as normal swimming activity. […]
This C. elegans assay offers a new model for the evaluation of electroconvulsive seizures (FIG. 4). […] Recovery is recorded when the animals present with three sinusoidal movements, which is then characterized as normal swimming activity. […]

Structure (SMILES)	sensitivity to electroshock when mutants are treated with antiepileptic drugs [1]	seizure-like phenotypes seen in C. elegans [2]	sensitivity to electroshock when mutants are additionally treated with PTZ [1]	restoration of recovery time [3]
CCOC(=O)Nc1ccc(NCc2ccc(F)cc2)cc1N [Retigabine]	increased sensitivity is rescued	–	–	–
CC[C@@H](C(N)=O)N1CCCC1=O [Keppra, levetiracetam]	increased sensitivity is rescued	–	–	–
C1CCc2nnnn2CC1 [PTZ, Pentylenetetrazole]	–	enhances the seizure-like phenotypes	sensitivity to electroshock is increased	–
CCCC(CCC)C(=O)[O-].[Na+] [Sodium valproate, sodium valproate]	increased sensitivity is rescued	–	–	relatively modest restoration of recovery time

— patent publication US20260345543A1, “Bridged Bicyclic Compounds and their Derivatives as Antiepileptic Agents and Methods of Use Thereof” (Florida Atlantic University Board of Trustees, priority 2022, published 2026)
